Experimental data as given in paper PMC10924921, “Mi-2β promotes immune evasion in melanoma by activating EZH2 methylation” (Nature Communications, 2024).

Experiments:
Assay in all cases: biochemical
Parameters in all cases: KINOMEscan active-site competition binding panel (468 kinase assays), per cent of control at 1000 nM
Conditions in all cases: KINOMEscan per cent of control (binding competition); read-out: Percent Control
LOK = target: T1, LOK (Homo sapiens, UniProt O94804)
T1 construct: gene STK10
Text: (§1) Figure S7 / Percent Control

[1] = target: T2, ABL1(E255K)-phosphorylated (Homo sapiens, UniProt P00519, E255K)
T2 construct: phosphorylated
Text: as §1

EGFR(E746-A750del) = EGFR(E746-A750del) (Homo sapiens, UniProt P00533, DEL746-750)
Text: as §1

ULK2 = ULK2 (Homo sapiens, UniProt Q8IYT8)
Text: as §1

KIT = KIT (Homo sapiens, UniProt P10721)
Text: as §1

PIK3CA(H1047Y) = PIK3CA(H1047Y) (Homo sapiens, UniProt P42336, H1047Y)
Text: as §1

ERK4 = target: T3, ERK4 (Homo sapiens, UniProt P31152)
T3 construct: gene MAPK4
Text: as §1

TGFBR1 = TGFBR1 (Homo sapiens, UniProt P36897)
Text: as §1

[2] = target: T4, ABL1(M351T)-phosphorylated (Homo sapiens, UniProt P00519, M351T)
T4 construct: phosphorylated
Text: as §1

PLK3 = PLK3 (Homo sapiens, UniProt Q9H4B4)
Text: as §1

TLK2 = TLK2 (Homo sapiens, UniProt Q86UE8)
Text: as §1

FLT1 = FLT1 (Homo sapiens, UniProt P17948)
Text: as §1

PCTK3 = target: T5, PCTK3 (Homo sapiens, UniProt Q07002)
T5 construct: gene CDK18
Text: as §1

TNK2 = TNK2 (Homo sapiens, UniProt Q07912)
Text: as §1

LIMK2 = LIMK2 (Homo sapiens, UniProt P53671)
Text: as §1

ANKK1 = ANKK1 (Homo sapiens, UniProt Q8NFD2)
Text: as §1

CDKL1 = CDKL1 (Homo sapiens, UniProt Q00532)
Text: as §1

CSNK2A2 = CSNK2A2 (Homo sapiens, UniProt P19784)
Text: as §1

MAP4K2 = MAP4K2 (Homo sapiens, UniProt Q12851)
Text: as §1

MAP3K4 = MAP3K4 (Homo sapiens, UniProt Q9Y6R4)
Text: as §1

TAK1 = target: T6, TAK1 (Homo sapiens, UniProt O43318)
T6 construct: gene MAP3K7
Text: as §1

STK16 = STK16 (Homo sapiens, UniProt O75716)
Text: as §1

MYLK = MYLK (Homo sapiens, UniProt Q15746)
Text: as §1

GRK7 = GRK7 (Homo sapiens, UniProt Q8WTQ7)
Text: as §1

STK36 = STK36 (Homo sapiens, UniProt Q9NRP7)
Text: as §1

Chain of CDKL1 (Q00532 whole entry): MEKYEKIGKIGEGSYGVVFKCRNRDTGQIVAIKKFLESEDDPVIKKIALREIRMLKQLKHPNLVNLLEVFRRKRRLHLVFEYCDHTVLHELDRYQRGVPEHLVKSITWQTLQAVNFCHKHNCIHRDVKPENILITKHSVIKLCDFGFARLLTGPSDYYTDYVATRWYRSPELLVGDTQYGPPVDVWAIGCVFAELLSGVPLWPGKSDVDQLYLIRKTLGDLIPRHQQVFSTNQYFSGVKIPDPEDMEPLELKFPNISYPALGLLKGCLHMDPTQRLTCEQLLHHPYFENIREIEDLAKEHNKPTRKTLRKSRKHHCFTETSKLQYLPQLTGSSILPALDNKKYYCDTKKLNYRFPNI
Chain of TGFBR1 (P36897 whole entry): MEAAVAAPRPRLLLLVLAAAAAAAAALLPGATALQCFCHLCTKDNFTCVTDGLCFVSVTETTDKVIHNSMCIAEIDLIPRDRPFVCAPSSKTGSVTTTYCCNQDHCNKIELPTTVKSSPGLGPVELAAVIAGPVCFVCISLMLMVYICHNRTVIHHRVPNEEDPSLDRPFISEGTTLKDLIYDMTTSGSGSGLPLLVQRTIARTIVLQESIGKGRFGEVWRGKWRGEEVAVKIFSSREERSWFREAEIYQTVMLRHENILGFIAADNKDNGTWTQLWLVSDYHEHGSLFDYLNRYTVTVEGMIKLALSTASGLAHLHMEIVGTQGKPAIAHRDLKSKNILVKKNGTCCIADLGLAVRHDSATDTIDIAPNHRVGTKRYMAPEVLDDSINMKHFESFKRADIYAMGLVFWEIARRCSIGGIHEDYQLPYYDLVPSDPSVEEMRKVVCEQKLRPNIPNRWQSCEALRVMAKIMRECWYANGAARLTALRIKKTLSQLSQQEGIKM
Chain of PIK3CA(H1047Y) (P42336 whole entry H1047Y): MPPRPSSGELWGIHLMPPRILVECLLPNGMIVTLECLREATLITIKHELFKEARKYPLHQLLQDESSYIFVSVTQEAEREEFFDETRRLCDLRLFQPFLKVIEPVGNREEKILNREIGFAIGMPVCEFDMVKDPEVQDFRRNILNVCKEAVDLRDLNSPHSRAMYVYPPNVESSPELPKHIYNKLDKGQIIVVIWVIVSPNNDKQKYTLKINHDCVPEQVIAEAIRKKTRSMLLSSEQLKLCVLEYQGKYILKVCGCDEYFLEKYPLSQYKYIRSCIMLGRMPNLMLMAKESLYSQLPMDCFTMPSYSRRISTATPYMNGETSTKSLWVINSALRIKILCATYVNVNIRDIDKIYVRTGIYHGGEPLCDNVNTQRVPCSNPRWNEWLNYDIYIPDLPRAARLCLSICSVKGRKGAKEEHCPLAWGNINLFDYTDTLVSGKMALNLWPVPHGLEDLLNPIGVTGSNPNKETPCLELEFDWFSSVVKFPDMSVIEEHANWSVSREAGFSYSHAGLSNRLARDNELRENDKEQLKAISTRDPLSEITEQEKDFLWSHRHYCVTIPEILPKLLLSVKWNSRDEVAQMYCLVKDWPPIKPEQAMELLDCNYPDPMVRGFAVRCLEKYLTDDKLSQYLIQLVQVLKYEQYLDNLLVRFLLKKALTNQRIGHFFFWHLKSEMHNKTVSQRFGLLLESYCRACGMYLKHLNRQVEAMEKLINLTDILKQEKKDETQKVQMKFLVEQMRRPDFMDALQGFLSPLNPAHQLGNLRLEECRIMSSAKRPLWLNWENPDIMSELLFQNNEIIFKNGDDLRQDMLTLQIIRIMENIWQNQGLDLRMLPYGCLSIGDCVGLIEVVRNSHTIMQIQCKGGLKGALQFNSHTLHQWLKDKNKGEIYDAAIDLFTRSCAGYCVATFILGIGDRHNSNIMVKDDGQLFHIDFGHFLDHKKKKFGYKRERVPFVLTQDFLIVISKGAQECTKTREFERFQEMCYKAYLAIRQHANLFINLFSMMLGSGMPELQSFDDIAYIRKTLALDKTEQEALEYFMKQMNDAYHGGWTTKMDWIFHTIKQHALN
Chain of CSNK2A2 (P19784 whole entry): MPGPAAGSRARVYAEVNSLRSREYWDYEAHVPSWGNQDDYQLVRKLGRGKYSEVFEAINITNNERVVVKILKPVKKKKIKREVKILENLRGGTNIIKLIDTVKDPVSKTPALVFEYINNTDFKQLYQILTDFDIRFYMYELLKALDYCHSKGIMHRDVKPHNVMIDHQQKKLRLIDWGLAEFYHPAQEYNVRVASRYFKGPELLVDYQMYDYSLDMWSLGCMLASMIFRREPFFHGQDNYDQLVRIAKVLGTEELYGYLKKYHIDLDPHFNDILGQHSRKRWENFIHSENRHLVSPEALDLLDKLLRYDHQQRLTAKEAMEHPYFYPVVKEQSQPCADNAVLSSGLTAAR
T3 sequence (P31152 whole entry): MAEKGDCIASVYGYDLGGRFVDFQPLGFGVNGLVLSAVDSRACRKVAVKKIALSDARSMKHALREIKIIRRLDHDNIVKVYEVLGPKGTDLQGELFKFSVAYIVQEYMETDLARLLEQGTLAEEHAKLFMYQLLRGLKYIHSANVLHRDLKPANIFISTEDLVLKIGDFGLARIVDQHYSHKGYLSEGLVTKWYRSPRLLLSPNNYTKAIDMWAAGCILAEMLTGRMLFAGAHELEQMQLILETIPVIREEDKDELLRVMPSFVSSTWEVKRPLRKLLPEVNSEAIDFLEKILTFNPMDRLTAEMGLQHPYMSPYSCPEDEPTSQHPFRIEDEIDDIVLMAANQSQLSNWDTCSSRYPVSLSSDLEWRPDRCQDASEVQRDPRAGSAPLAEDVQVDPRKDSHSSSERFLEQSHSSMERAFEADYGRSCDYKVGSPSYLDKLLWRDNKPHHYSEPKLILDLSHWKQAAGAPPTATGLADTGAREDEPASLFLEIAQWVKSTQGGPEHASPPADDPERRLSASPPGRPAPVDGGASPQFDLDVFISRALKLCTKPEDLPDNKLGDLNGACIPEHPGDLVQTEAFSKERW
Chain of EGFR(E746-A750del) (P00533 with tags, fused parts or gaps DEL746-750): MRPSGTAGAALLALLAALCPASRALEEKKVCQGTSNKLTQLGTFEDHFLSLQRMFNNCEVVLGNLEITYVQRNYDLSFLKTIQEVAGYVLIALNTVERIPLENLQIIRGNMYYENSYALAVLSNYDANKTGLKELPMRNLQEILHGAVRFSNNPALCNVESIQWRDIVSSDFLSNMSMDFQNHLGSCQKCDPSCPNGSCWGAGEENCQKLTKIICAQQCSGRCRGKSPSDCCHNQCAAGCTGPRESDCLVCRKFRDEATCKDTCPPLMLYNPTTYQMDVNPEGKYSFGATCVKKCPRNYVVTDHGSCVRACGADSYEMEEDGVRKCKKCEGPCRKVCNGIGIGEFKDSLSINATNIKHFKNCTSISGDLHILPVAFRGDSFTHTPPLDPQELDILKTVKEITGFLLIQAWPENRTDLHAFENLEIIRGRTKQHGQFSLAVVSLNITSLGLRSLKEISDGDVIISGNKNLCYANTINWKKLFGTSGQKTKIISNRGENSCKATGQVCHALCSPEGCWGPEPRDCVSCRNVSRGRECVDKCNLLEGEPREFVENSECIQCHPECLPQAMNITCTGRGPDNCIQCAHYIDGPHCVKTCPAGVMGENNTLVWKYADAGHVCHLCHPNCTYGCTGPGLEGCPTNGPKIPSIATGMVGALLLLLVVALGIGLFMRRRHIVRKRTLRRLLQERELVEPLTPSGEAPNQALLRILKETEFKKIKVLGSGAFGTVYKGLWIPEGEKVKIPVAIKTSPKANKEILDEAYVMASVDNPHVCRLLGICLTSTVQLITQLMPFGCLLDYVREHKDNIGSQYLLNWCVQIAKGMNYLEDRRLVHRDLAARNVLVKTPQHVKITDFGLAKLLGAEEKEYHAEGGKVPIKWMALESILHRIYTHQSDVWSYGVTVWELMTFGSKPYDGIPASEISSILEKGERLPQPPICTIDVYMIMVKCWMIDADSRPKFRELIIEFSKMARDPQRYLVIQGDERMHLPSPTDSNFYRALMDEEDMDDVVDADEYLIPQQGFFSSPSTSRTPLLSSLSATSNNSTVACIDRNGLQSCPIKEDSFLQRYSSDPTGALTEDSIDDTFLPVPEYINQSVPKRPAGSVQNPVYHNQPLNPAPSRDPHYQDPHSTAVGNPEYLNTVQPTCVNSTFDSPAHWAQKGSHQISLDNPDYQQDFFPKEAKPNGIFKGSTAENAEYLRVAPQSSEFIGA
T1 sequence (O94804 whole entry): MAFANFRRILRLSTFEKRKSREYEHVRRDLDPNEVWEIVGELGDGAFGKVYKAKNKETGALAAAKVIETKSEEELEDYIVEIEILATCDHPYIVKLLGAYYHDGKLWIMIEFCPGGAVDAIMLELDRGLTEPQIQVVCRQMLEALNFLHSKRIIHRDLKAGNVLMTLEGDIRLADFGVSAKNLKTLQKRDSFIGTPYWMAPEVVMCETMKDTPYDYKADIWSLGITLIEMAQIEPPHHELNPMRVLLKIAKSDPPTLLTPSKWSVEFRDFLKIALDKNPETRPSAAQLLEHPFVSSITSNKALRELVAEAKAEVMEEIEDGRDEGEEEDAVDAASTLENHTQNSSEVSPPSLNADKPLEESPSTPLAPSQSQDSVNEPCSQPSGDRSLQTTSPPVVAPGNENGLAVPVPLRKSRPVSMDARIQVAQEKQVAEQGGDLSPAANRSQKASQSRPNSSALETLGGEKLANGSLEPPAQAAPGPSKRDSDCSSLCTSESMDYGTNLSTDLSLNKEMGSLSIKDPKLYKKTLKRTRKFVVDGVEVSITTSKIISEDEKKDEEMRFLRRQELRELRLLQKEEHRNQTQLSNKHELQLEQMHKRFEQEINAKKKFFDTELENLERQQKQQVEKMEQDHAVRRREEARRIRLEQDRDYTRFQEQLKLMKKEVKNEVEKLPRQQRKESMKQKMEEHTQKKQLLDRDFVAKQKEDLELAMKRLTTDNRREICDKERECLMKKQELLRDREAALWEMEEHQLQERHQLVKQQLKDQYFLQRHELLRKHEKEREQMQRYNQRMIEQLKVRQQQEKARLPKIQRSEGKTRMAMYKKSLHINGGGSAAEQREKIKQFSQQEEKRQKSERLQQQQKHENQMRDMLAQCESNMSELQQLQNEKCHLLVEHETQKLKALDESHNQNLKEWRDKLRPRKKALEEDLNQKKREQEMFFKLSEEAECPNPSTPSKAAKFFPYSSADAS

Compound `Cn1c(=O)[nH]c2ccc(-c3cccc(C(=O)NC4CCn5ccnc5C4)c3)cc21` (stereo not shown) [Z36-MP5] has a remaining binding at 1 µM (LOK) of 90%, a remaining binding at 1 µM [1] of 79% and a remaining binding at 1 µM (EGFR(E746-A750del)) of 63%. For the same compound, the remaining binding at 1 µM (ULK2) was 59%, the remaining binding at 1 µM (KIT) was 95% and the remaining binding at 1 µM (PIK3CA(H1047Y)) was 91%. The remaining binding at 1 µM (ERK4) was 91%, the remaining binding at 1 µM (TGFBR1) was 90% and the remaining binding at 1 µM [2] was 59%. The remaining binding at 1 µM (PLK3) was 68%, the remaining binding at 1 µM (TLK2) was 53% and the remaining binding at 1 µM (FLT1) was 95%. The remaining binding at 1 µM (PCTK3) was 86%, the remaining binding at 1 µM (TNK2) was 41% and the remaining binding at 1 µM (LIMK2) was 96%. For the same compound, the remaining binding at 1 µM (ANKK1) was 60%, the remaining binding at 1 µM (CDKL1) was 41% and the remaining binding at 1 µM (CSNK2A2) was 63%. It also gave a remaining binding at 1 µM (MAP4K2) of 81%, a remaining binding at 1 µM (MAP3K4) of 63% and a remaining binding at 1 µM (TAK1) of 84%. The remaining binding at 1 µM (STK16) was 31%, the remaining binding at 1 µM (MYLK) was 81% and the remaining binding at 1 µM (GRK7) was 90%. The remaining binding at 1 µM (STK36) was 77%.
